Key:
[1] = method code SF-HPLC, from PMID: 9554875; conditions: pH 6.8
[2] = method code SF-HPLC, from DOI: 10.1016/0378-5173(89)90028-8
[3] = method code SF-HPLC, from DOI: 10.1080/01483919108049396; conditions: pH 7.0
[4] = method code SF, from DOI: 10.1016/0006-2952(79)90295-8, PMID: 36087
[5] = method code SF, from Wang, L.; Li, H.; Wang, X.; Zhang, Z. (1993). Determination of aqueous solubilities and partition coefficients of substitutive ethylketone congeners by generator column. Huanjing Huaxue, 12(2)151-154.
[6] = not given; remark: listed apart in the source
[7] = method code SF, from PMID: 7274411
[8] = not given; remark: listed apart in the source
[9] = method code SF, from PMID: 25193232; conditions: pH 7.4
[10] = method code SF, from DOI: 10.1007/bf01610114, PMID: 6839039
[11] = method code SF-AS, from DOI: 10.1021/jm00040a014, PMID: 8035429; conditions: pH 7.4
[12] = method code SF-HPLC, from DOI: 10.1023/a:1015902024664, PMID: 2235895; conditions: pH 7.0
[13] = method code SF-HPLC, from DOI: 10.1016/0378-5173(90)90303-l; conditions: pH 7.4
[14] = method code SF-AS, from DOI: 10.1135/cccc19831077; conditions: pH 3.5
[15] = not given; remark: listed apart in the source
[16] = method code SF-RC, from DOI: 10.1021/jf60186a044, PMID: 4688915
[17] = method code SF-HPLC, from DOI: 10.1016/0378-5173(90)90181-3; conditions: pH 7.4
[18] = not given; remark: listed apart in the source
[19] = method code SF, from DOI: 10.1016/0168-3659(92)90078-6; conditions: pH 7.0
[20] = method code SF, from Yoshimoto, M. (1982). Quantitative structure-activity relationships and structure patterns of drugs. SankyoÌ„ KenkyuÌ„jo nenpoÌ„ (Annual report of Sankyo Research Laboratories), 34, 1-38.
[21] = method code SF-HPLC, from DOI: 10.1023/a:1011018730459, PMID: 11451042
[22] = method code SF-AS, from DOI: 10.1016/j.bmc.2004.10.037, PMID: 15653345
[23] = method code SF-HPLC, from DOI: 10.1039/a702469j; conditions: pH 7.0
[24] = not given; remark: listed apart in the source
[25] = method code SF-RC, from DOI: 10.1002/ps.2780410303; conditions: pH 2.8

Cc1cn(C2C=CC(COP3(=O)OCc4cc([N+](=O)[O-])ccc4O3)O2)c(=O)[nH]c1=O (stereo unspecified)
logD [1]: 0.18

CCn1cc(C(=O)OCOC(=O)C(C)C)c(=O)c2ccc(C)nc21
logP [2]: 2.17

O=C(Nc1ncnc2c1ncn2[C@H]1C[C@H](O)[C@@H](CO)O1)c1ccccc1
logD [3]: 0.22

CC(=O)NCc1cccc(OCC(O)CNC(C)C)c1 (stereo unspecified)
logP [4]: 0.34

O=C(CSc1ccccc1)c1ccccc1
logP [5]: 1.88

CCN1CCN(Cc2ccc(OC)c(OC)c2OC)CC1
logP: 1.69

O=C(Nc1ccn(C2OC(CO)C(O)C2O)c(=O)n1)c1ccccc1 (stereo unspecified)
logD [3]: 0.3

OC(Cn1ccnc1)(Cn1cncn1)c1ccc(Cl)cc1Cl (stereo unspecified)
logP [6]: 1.6

O=C1CN=C(c2ccccc2)c2cc([N+](=O)[O-])ccc2N1
logD ([7]; pH 8.0): 2.06

Cc1cc(Cl)c(Cc2cc(Cl)ccc2Cl)cc1Cl
logP [8]: 6.51

O=C(NOC[C@H](O)CO)c1ncc2cncn2c1Nc1ccc(I)cc1F
logD [9]: 1.1

O=C(NOCCO)c1ccn2cncc2c1Nc1ccc(I)cc1F
logD [9]: 2.05

CC(C)COC(=O)c1ccccc1C(=O)OCC(C)C
logP [10]: 4.11

CCOP(=O)(CC(=O)OCC1OC(n2ccc(N)nc2=O)CS1)OCC (stereo unspecified)
logD [11]: 0.48

C/N=C1/CN(O)C(c2ccccc2)=c2cc(Cl)ccc2=N1
logD ([7]; pH 8.0): 2.12

CCCCCCCCCC(=O)OC[C@H]1O[C@@H](n2cc(C)c(=O)[nH]c2=O)C[C@@H]1N=[N+]=[N-]
logD [12]: 4.45

CCN(CC)C(=O)COC(=O)c1cc(S(N)(=O)=O)c(Cl)cc1NCc1ccco1
logD [13]: 2.45

Cc1ccc(SCC(=O)c2ccccc2)cc1
logP [5]: 2.46

O=C(O)Cc1ccc(OCc2ccccc2)c(Cl)c1
logD [14]: 3.43

CCOCCOCCOc1ccc2c(c1)c(-c1ccccc1)nc(=O)n2C
logP [15]: 1.84

Cn1c(=O)nc(-c2ccccc2)c2cc(O)ccc21
logP [15]: 1.72

CSc1ccc(C(c2ccc(SC)cc2)C(Cl)(Cl)Cl)cc1
logP [16]: 3.85

COc1ccc(C(c2ccc(SC)cc2)C(Cl)(Cl)Cl)cc1 (stereo unspecified)
logP [16]: 2.9

O=C(OCn1ncc2c(=O)[nH]cnc21)c1ccc(CN2CCOCC2)cc1
logD [17]: 1.13

Cc1cc(Cl)c(Cl)cc1Cc1ccc(Cl)cc1Cl
logP [8]: 6.43

O=C(OCn1ncc2c(=O)[nH]cnc21)c1cccc(CN2CCOCC2)c1
logD [17]: 1.12

CC(O)CONC(=O)c1ncc2cncn2c1Nc1ccc(I)cc1F (stereo unspecified)
logD [9]: 2.2

O=C(Nc1ncnc2c1ncn2[C@@H]1O[C@H](CO)[C@@H](O)[C@H]1O)c1ccccc1
logD [3]: -0.1

OC1(c2cccc(I)c2)c2ccccc2C2=NCCN21 (stereo unspecified)
logP [18]: 2.3

CCOP(=O)(OCC)C(=O)CCCCNc1ccn(C2CSC(CO)O2)c(=O)n1 (stereo unspecified)
logD [11]: 1.21

CCCCCCC(O)(Cn1ccnc1)c1ccc(Cl)cc1Cl (stereo unspecified)
logP [6]: 5.2

CC(C)C(=O)OCC1CCC(n2cnc3c(O)ncnc32)O1 (stereo unspecified)
logD [19]: 0.02

Cc1cn(C2C=CC(COP3(=O)OCc4cc(Cl)ccc4O3)O2)c(=O)[nH]c1=O (stereo unspecified)
logD [1]: 0.88

CC(C)(C)C(=O)OCC1CCC(n2cnc3c(O)ncnc32)O1 (stereo unspecified)
logD [19]: 0.6

Clc1ccc(C(Cn2ccnc2)OCc2ccsc2Cl)c(Cl)c1 (stereo unspecified)
logP [6]: 4.7

COC1(NC(=O)CSc2nncs2)C(=O)N2C(C(=O)O)=C(COC(N)=O)CSC21 (stereo unspecified)
logP [20]: -1.95

O=C(OCC1OC(n2cnc3c(NC4CCCC4)ncnc32)C(O)C1O)C1CCCCC1 (stereo unspecified)
logP [21]: 2.95

Cn1c(=O)nc(-c2ccccc2)c2ccccc21
logP [15]: 1.79

O=C(OCn1ncc2c(=O)[nH]cnc21)c1cccc(Cn2ccnc2)c1
logD [17]: 0.97

CCCCCOC(=O)c1ccccc1C(=O)OCCCCC
logP [10]: 4.85

OC[C@H]1O[C@@H](n2cnc3c(NC4CCCC4)ncnc32)[C@H](O)[C@@H]1O
logP [21]: 1.21

Cc1cc(Cc2ccc(Cl)c(Cl)c2)c(Cl)cc1Cl
logP [8]: 6.51

CCCC(C)C(=O)OCC1CCC(n2cnc3c(O)ncnc32)O1 (stereo unspecified)
logD [19]: 1

CCOC(=O)c1cc(S(N)(=O)=O)c(Cl)cc1NCc1ccco1
logD [13]: 2.67

CCCC(=O)OC[C@H]1O[C@@H](n2cc(C)c(=O)[nH]c2=O)C[C@@H]1N=[N+]=[N-]
logD [12]: 1.5

OCCN1CCN(Cc2ccc(O)c3ncccc23)CC1
logP [22]: 0.54

CCOP(=O)(OCC)C(C)(C)[N+]([O-])=Cc1ccccn1
logD [23]: 0.68

CN1CCN(CCCN2c3ccccc3Sc3ccc(C(F)(F)F)cc32)CC1
logP: 4.71

CCN(CC)CCCC(C)Nc1c2ccc(Cl)cc2nc2ccc(OC)cc12 (stereo unspecified)
logP: 5.09

CN1C(=O)CN=C(c2ccccc2F)c2cc([N+](=O)[O-])ccc21
logD ([7]; pH 4.0): 2.05

OC1(c2cccc(Br)c2)c2ccccc2C2=NCCN21 (stereo unspecified)
logP [18]: 1.97

CC(C)(C)NC[C@H](O)COc1nsnc1N1CCOCC1
logP [24]: 1.98

CCC(=O)OCOC(=O)c1cn(CC)c2nc(C)ccc2c1=O
logP [2]: 1.7

CC(=O)Nc1ccc(OCC(O)CNCC(O)COc2ccccc2)cc1 (stereo unspecified)
logP [24]: 1.39

CC(C)OC(=O)c1ccccc1C(=O)OC(C)C
logP [10]: 2.83

C#CCN(C)Cc1ccc(O)c2ncccc12
logP [22]: 1.92

COc1cccc2c1OP(=O)(OC[C@@H]1C=C[C@H](n3cc(C)c(=O)[nH]c3=O)O1)OC2 (stereo partly specified)
logD [1]: 0.15

CCOC(=O)C(CS)NCc1ccc(O)c2ncccc12 (stereo unspecified)
logP [22]: 0.21

CCOP(=O)(OCC)C(C)(C)[N+]([O-])=Cc1ccc(Cl)cc1
logD [23]: 2.44

OC1(c2cccc(Cl)c2)c2ccccc2C2=NCCN21 (stereo unspecified)
logP [18]: 1.85

CCCCCC(=O)OC[C@H]1O[C@@H](n2cc(C)c(=O)[nH]c2=O)C[C@@H]1N=[N+]=[N-]
logD [12]: 2.45

CNC(=O)COc1ccc(OCC(O)CNC(C)C)cc1 (stereo unspecified)
logP [4]: 0.56

CCCCC(=O)OCC1OC(n2cnc3c(NC4CCCC4)ncnc32)C(O)C1O (stereo unspecified)
logP [21]: 2.79

Cc1cc(CC(=O)O)ccc1OCc1ccccc1
logD [14]: 3.37

CNC(=O)COc1cccc(OCC(O)CNC(C)C)c1 (stereo unspecified)
logP [4]: 0.35

CCOP(=O)(OCC)C(=O)OCC1OC(n2ccc(NC(C)=O)nc2=O)CS1 (stereo unspecified)
logD [11]: 0.65

CCCCc1cnc(C2=NC(C)(C(C)C)C(=O)N2)c(C(=O)O)c1 (stereo unspecified)
logD [25]: 1.99

O=C(CSc1ccccc1)c1ccc(Cl)cc1
logP [5]: 2.69

CCOc1ccc(C(c2ccc(C)cc2)C(Cl)(Cl)Cl)cc1 (stereo unspecified)
logP [16]: 3.96

CCOP(=O)(OCC)C(C)(C)[N+]([O-])=Cc1ccc([N+](=O)[O-])cc1
logD [23]: 1.43

COC1(NC(=O)CSc2nc3c[nH]cnc-3n2)C(=O)N2C(C(=O)O)=C(COC(N)=O)CSC21 (stereo unspecified)
logP [20]: -1.72

O=C(O)Cc1ccc(OCCCc2ccccc2)c(Cl)c1
logD [14]: 3.9

OC(CNCC(O)COc1ccccc1)COc1ccccc1 (stereo unspecified)
logP [24]: 2.52

CCC(=O)OCOC(=O)c1cc(S(N)(=O)=O)c(Cl)cc1NCc1ccco1
logD [13]: 2.9

CCn1cc(C(=O)OCOC(C)=O)c(=O)c2ccc(C)nc21
logP [2]: 1.21

CCC(C)SCC(=O)NC1(OC)C(=O)N2C(C(=O)O)=C(COC(N)=O)CSC21 (stereo unspecified)
logP [20]: -1.38

From the SangsterLogP compilation
